# From patent US20060234276A1, “Methods of treatment of type 2 diabetes” (priority 1998, published 2006)
# Square brackets hold non-standard residues; d marks the D form. Peptide text beside a SMILES is read from it. * marks the point of attachment. Sta = CC(C)C[C@H](N)[C@@H](O)CC(=O)O; Isovaleryl = CC(C)CC(=O)*
# Assays:
# mouse pancreatic islets = test: Static incubation of isolated pancreatic islets, insulin secretion; type: cell-based; conditions: for insulin secretory responses to 20 mM glucose in presence of other protease inhibitors: 100 μM inhibitor; for effect on basal or glucose-stimulated insulin secretion: 100 μM Cathepsin B Inhibitor II, 20 μM Lactacystin
# Description: Static incubation of isolated pancreatic islets. Isolation of mouse pancreatic islets was accomplished using collagenase digestion as previously described (Pontoglio et al., 1998). […] Triplicate groups of 5 islets were then incubated in borosilicate tubes containing 1 ml of KRB with the same concentration of inhibitor and various insulin secretagogues for one hour in a moving water bath at 37° C. The reaction was stopped by placing the tubes on ice and an aliquot of the buffer was removed for measurement of insulin levels. Control studies, in which the incubation mixture contained vehicle (0.1% DMSO) only, were performed using aliquots of the same batch of islets
# Assay methods. Insulin concentrations were measured by a double antibody radioimmunoassay using a rat insulin standard. The intra-assay coefficient of variation for this technique is 7%. All samples were assayed in duplicate.
# perifused mouse islets = test: Insulin secretion from perifused islets; type: cell-based; conditions: 4 hr preincubation; 100 μM ALLM, 200 μM E-64-d
# Description: Insulin secretion from perifused islets. Insulin secretion from perifused islets was measured using a modification of a previously described protocol (Pontoglio et al., 1998; Sreenan et al., 1998).
# isolated β-cells = test: Membrane capacitance recordings (exocytosis) in isolated β-cells; type: cell-based, mouse; conditions: 4 days culture with inhibitor
# Description: Isolation of pancreatic β-cells. Single β-cells were obtained from isolated islets dispersed by gentle trituration (120 strokes through a 200 μl pipette tip) in Ca^2+ and Mg^2+-free PBS containing […]. Cells were plated on glass coverslips and maintained in culture in RPMI containing 11.6 mM glucose for 48-96 hr.
# Capacitance recordings. Capacitance measurements were made with the phase-tracking technique in which a 60 mV peak-to-peak sine wave was superimposed on a holding potential of −80 mV as previously described. Conductance and capacitance values were continuously generated and recorded. The whole-cell capacitance was canceled with the slow capacitance compensation; unbalancing the slow capacitance compensation by 100 fF provided the capacitance calibration signal used to calculate changes in membrane capacitance. The sinusoidal voltage template was interrupted to deliver depolarizations to a cell. Beta cells were stimulated with a train of ten step depolarizations to +20 mV (HP=−80 mV). Each step depolarization lasted 150 ms and was separated by 400 ms interpulse duration. Capacitance measurements were carried out in the perforated whole-cell configuration. The data were collected at a 500 μsec sampling rate and filtered at 5 kHz. Recordings with series resistance >20 MΩ were discarded. Series resistance compensation was applied in all recordings.
# The recording solution for the capacitance measurements contained (in mM): 130 NaCl, 2 glucose, 10 Na-HEPES, 1 MgCl2, 2 KCl, and 5 CaCl2, pH 7.3 with NaOH. The pipette solution contained (in mM): 135 Cs-glutamate, 10 Na-HEPES, 9.5 NaCl, 0.5 TEACl, and 0.5 CaCl2, pH7.3 with CsOH. The pipettes were backfilled with an identical solution to which amphotericin B (final concentration of 0.5 mg/ml) was added and then sonicated. The amphotericin B stock solution (125 mg/ml) was kept frozen at −20° C. and used for one week. ALLM pre-treatment was as described above (see patch-clamp electrophysiology section). All electrophysiological recordings were carried out at room temperature (22-24° C.)
# mouse islets [1] = test: Measurement of islet [Ca2+]i (Fura-2); type: cell-based
# Description: (§1) Measurement of islet [Ca^2+]i, and NAD(P)H. Islet [Ca^2+]i and NAD(P)H were measured as previously described (Pontoglio et al., 1998; Dukes et al., 1998).
# Insulin secretory responses to glucose and most other secretagogues is mediated by a rise in intracellular free calcium ([Ca^2+]i). We therefore measured [Ca^2+]i responses to glucose, KIC and KCl using Fura-2 as the Ca^2+ indicator. In comparison to the responses from the control islets, the most prominent abnormality in [Ca^2+]i responses to glucose and KIC was a delay of the [Ca^2+]i responses (FIG. 21). The mean time interval between administration of 14 mM glucose and the point of half maximal response (T1/2.) was 120±14 seconds in control islets. […] There was no delay in the appearance of [Ca^2+]i response to KCl, nor was the magnitude of the response reduced.
# mouse islets [2] = test: Glucose utilization and oxidation rates in islets; type: cell-based
# Description: Glucose utilization and oxidation rates. Glucose utilization and oxidation rates were measured as previously described (Dukes et al., 1998; Zhou et al., 1996) in mouse islets cultured as described above in the presence or absence of calpain inhibitors.
# mouse islets [3] = test: Islet NAD(P)H autofluorescence response; type: cell-based
# Description: as §1
# calpain = test: Calpain activity in mouse pancreatic islets (Boc-Leu-Met-CMAC cleavage); type: cell-based
# rat adipocytes = test: 2-Deoxyglucose uptake into adipocytes; type: cell-based; conditions: 100 μM ALLM or 200 μM E-64-d
# Description: Adipocytes were isolated from epididymal fat pads of 3 month old male Wistar rats as described previously (Robdell, 1964) with the following modification: fat pads were minced to 1-2 mm pieces and incubated for ˜25 min at 37° C. with collagenase I (1 mg/ml, Worthington Biochemicals, Lakewood, N.J.) in KRB containing 10 mM Hepes (pH 7.4), 0.2% BSA and 2 mM sodium pyruvate. The cell suspension was filtered through a nylon mesh (134 μM, Spectrum Lab., Laguna Hills, Calif.) washed three times by floating and allowed to rest for 45 min in the KRB. […] Then another 50 μl of KRB containing 5 mM 2-DOG (final concentration 1 mM), 0.5 μCi of 2-deoxy-[2,6-^3H]glucose was added and cells were incubated for a further 5 min at 25° C. The transport was stopped by adding cytochalasin B (final concentration 50 μM) and cells were spun through 250 μl of dinonyl phthalate oil (Fisher Scientific, Pittsburgh, Pa.). Cells were then transferred to scintillation vials for counting.
# rat soleus muscle strips = test: 2-Deoxyglucose uptake into soleus muscle strips; type: cell-based; conditions: 100 μM ALLM or 200 μM E-64-d
# Description: 2-Deoxyglucose uptake into skeletal muscle and adipose tissue. 2-deoxyglucose (2-DOG) uptake by isolated strips of soleus muscle from normal Wistar rats was measured using a modification of a previously described protocol (Burant et al., 1984). […] Muscles were then extracted and 2-DOG uptake calculated as previously described (Burant et al., 1984).
# soleus muscle strips = test: Glycogen synthesis rates in skeletal muscle; type: cell-based, rat; conditions: 100 μM ALLM or 200 μM E-64-d
# Excerpt: Glycogen synthesis rates in skeletal muscle.
# islets = test: Insulin content of islets after 48 h inhibitor exposure; type: cell-based, mouse; conditions: 48 hours treatment
compound,measurement,setting,value
"CCOC(=O)[C@H]1O[C@@H]1C(=O)N[C@@H](CC(C)C)C(=O)NCCC(C)C [E-64-d, ethyl (+)-(2S,3S)-3-[(S)-3-Methyl-1-(3-methylbutylcarbamoyl)butyl-carbamoyl]-2-oxiranecarboxylate]",insulin secretory response to 20 mM glucose after recovery,"mouse pancreatic islets; 48-h treatment, then 2 days recovery without inhibitor",essentially normal insulin secretory response
same,effect on insulin secretion at 2 mM glucose,"mouse pancreatic islets; 4 hr exposure, ALLM 250 μM, E-64-d 200 μM, 2 mM glucose",not observed
same,basal insulin secretion (2 mM glucose) vs control-treated islets,mouse pancreatic islets; 48 hours exposure,no significant difference
same,insulin secretory response to 30 mM KCl,mouse pancreatic islets; 48 h treated islets,significantly reduced
same,insulin secretory response to carbachol,mouse pancreatic islets; 48 h treated islets,attenuated
same,insulin secretory response to glyceraldehyde,mouse pancreatic islets; 48 h treated islets,responded normally
same,insulin secretory response to mastoparan,mouse pancreatic islets; 48 h treated islets,attenuated
same,insulin-secretory response to keto-isocaproic acid (KIC),mouse pancreatic islets; 48 h treated islets,decreased
same,insulin secretory responses to glucose (summary statement of Example 8),"mouse pancreatic islets; isolated mouse islets, introductory summary, no conditions given",increase in glucose induced insulin secretion
same,enhancement of insulin secretory response to 20 mM glucose in dynamic islet perifusion,perifused mouse islets,also observed
same,rates of exocytosis in β-cells,isolated β-cells,significantly lower rates of exocytosis
same,[Ca2+]i response to high glucose,"mouse islets [1]; 4 hr preincubation, 14 mM glucose",not associated with increases in [Ca^2+]i
same,[Ca2+]i response to glucose ramp (2 to 26 mM over 48 mins),mouse islets [1]; 48 h treated islets,diminished
same,[Ca2+]i responses to 30 mM KCl vs control,mouse islets [1]; 48 h treated islets,not different
same,integrated [Ca2+]i responses (area under the curves) to glucose and KIC vs control,mouse islets [1]; 48 h treated islets,significantly smaller
same,T1/2 of [Ca2+]i response to 14 mM glucose (time to half maximal response),"mouse islets [1]; 48 h treated islets, control 120±14 seconds",4.42 ± 1.08 min
same,T1/2 of [Ca2+]i response to KIC,"mouse islets [1]; 48 h treated islets, control 125±9",5.5 ± 0.12 min
same,rate of glucose utilization at basal glucose,"mouse islets [2]; 2 mM glucose, 100 μM ALLM or 200 μM E-64-d, 4 h",15.5±4 pmol/islet/hr
same,rate of glucose utilization at stimulatory glucose,"mouse islets [2]; 20 mM glucose, 100 μM ALLM or 200 μM E-64-d, 4 h",79.5±9.5 pmol/islet/hr
same,rate of basal glucose utilization and oxidation at 3.3 mM glucose,mouse islets [2]; 48 h treated islets,no significant changes
same,rates of glycolysis and glucose oxidation at stimulating concentrations of glucose,mouse islets [2]; 48 h treated islets vs controls,significantly reduced
same,glucose oxidation rate at basal glucose,"mouse islets [2]; basal glucose, ALLM or E-64-d, 4 h",5.2±0.4 pmol/islet/hr
same,glucose oxidation rate at stimulatory glucose,"mouse islets [2]; stimulatory glucose, ALLM or E-64-d, 4 h",40.0±2.4 pmol/islet/hr
same,NAD(P)H response to increase in glucose from 2 to 14 mM,"mouse islets [3]; 100 μM ALLM or E-64-d, 4 hr preincubation",2.8±0.3 fold increase
same,NAD(P)H responses to KIC vs control,mouse islets [3]; 48 h treated islets,significantly reduced
same,NAD(P)H responses to glucose vs control,mouse islets [3]; 48 h treated islets,comparable
same,area under the curve of rate of generation of fluorescent calpain product,"calpain; 200 μM inhibitor, 4 hr incubation",45±5 % of control values
same,residual calpain activity in intact islets,"calpain; 48 h treatment, 100 μM ALLM or 200 μM E-64-d",55±4 % of control treated islets
same,2-DOG uptake into adipocytes with insulin,rat adipocytes; insulin 12 nmol/L,749±129 pmol/2×10^5 cells/5 min
same,2-DOG uptake into adipocytes without insulin,rat adipocytes; no insulin,361±29 pmol/2×10^5 cells/5 min
same,2-deoxyglucose uptake into soleus muscle strips with insulin,rat soleus muscle strips; insulin 12 nM,0.36±0.02 (mol/ml H20/30 mins
same,2-deoxyglucose uptake into soleus muscle strips without insulin,rat soleus muscle strips; no insulin,0.31±0.02 (mol/ml H20/30 mins
same,magnitude of insulin-induced increase in muscle glycogen synthesis,soleus muscle strips; insulin 6 nM,0.31±0.09 nmol glucose/mg/hr
same,rate of muscle glycogen synthesis with insulin,soleus muscle strips; insulin 6 nM,0.80±0.14 nmol glucose/mg/hr
same,rate of muscle glycogen synthesis without insulin,soleus muscle strips; no insulin,0.49±0.08 nmol glucose/mg/hr
same,insulin content in islets vs control islets,islets,comparable
CC(C)CC(=O)N[C@H](C(=O)N[C@H](C(=O)N[C@@H](CC(C)C)[C@@H](O)CC(=O)N[C@@H](C)C(=O)N[C@@H](CC(C)C)[C@@H](O)CC(=O)O)C(C)C)C(C)C [pepstatin A] (Isovaleryl-VV[Sta]A[Sta]-OH),insulin secretory responses to 20 mM glucose in presence of other protease inhibitors,mouse pancreatic islets,not altered
CC(=O)N[C@@H](CC(C)C)C(=O)N[C@H](C(=O)N[C@H](C=O)CCCCN)C(C)C [Cath B Inhibitor II] (Ac-Leu-Val-Lys-aldehyde),insulin secretory responses to 20 mM glucose in presence of other protease inhibitors,mouse pancreatic islets,not altered
same,effect on basal or glucose-stimulated insulin secretion,mouse pancreatic islets; 48 h,did not significantly affect
MDL28170,inhibition of 20 mM glucose-stimulated insulin secretion,"mouse pancreatic islets; 48 h, 100 μM ALLM (so in the source), 50 μM MDL28170",approximately 60%
CC(=O)N[C@@H](CSC(=O)[C@]1([C@@H](O)C(C)C)NC(=O)[C@H](C)[C@@H]1O)C(=O)O [Lactacystin],effect on basal or glucose-stimulated insulin secretion,mouse pancreatic islets; 48 h,did not significantly affect
